Measured values reported in patent publication US10577618B2, “Class of glyphosate resistance genes” (Dow AgroSciences LLC, priority 2012, dated 2020).

Assays:
T1 wheat = assay: Detailed phenotypic screen of T1 wheat events at different glyphosate dose rates (Tables 41, 42); type: in vivo, Triticum aestivum; conditions: untransformed donor wheat plants
Procedure: Four replicates of 12 T1 seeds per selected event and eight replicates (12 seeds each) of the untransformed donor wheat line Bobwhite MPB26RH were sown in 85 mm pots and grown to the 2-leaf stage under well-watered conditions at 25° C. with supplementary lighting providing a 12 hour photoperiod. The pots were placed in a randomised design to allow environmental effects to be removed during data analysis. At the 2-leaf stage, plant length and number of leaves was recorded for each plant before spraying with glyphosate. The first, second, third and fourth replicate of T1 plants for each selected event and the untransformed donor wheat line were sprayed at a dose rate of 420, 840, 1680 and 3360 g ai/ha, respectively. The fifth, sixth, seventh and eighth replicate of untransformed donor wheat line (total 48 plants) were not sprayed. At 7, 14 and 21 days after spraying, the plants were scored for plant length, number of leaves and phenotypic response to glyphosate using the scoring scale in Table 37. Any morphological abnormalities were also recorded. For scoring, the scorer was “blinded” with regard to plant genotype and spray dose rate to prevent scoring bias. Plants with delayed germination and poor establishment (criteria: plant length <6 cm) at the pre-spray scoring were excluded from subsequent analyses.
This differentiation was maximal at 21 days and was observed across all glyphosate dose rates. Table 41. To assess the tolerance of the transgenic events to glyphosate at each spray dose rate, null T1 plants (i.e. plants not carrying the transgene) were excluded from subsequent analyses. T1 plants with a response score of less than three at 21 days after spraying were considered to have the null genotype. […]

T0 corn plants = assay: Post-emergence glyphosate tolerance of T0 dgt-28 corn (Table 19); type: in vivo, Zea mays
Procedure: Zea mays dgt-28 transformation events (T0) were allowed to acclimate in the greenhouse and were grown until plants had transitioned from tissue culture to greenhouse growing conditions (i.e., 2-4 new, normal looking leaves had emerged from the whorl). Plants were grown at 27° C. under 16 hour light:8 hour dark conditions in the greenhouse. The plants were then treated with commercial formulations of DURANGO DMA™ (containing the herbicide glyphosate) with the addition of 2% w/v ammonium-sulfate. Herbicide applications were made with a track sprayer at a spray volume of 187 L/ha, 50-cm spray height. T0 plants were sprayed with a range of glyphosate from 280-4480 g ae/ha glyphosate, which is capable of significant injury to untransformed corn lines. A lethal dose is defined as the rate that causes >95% injury to the B104 inbred.
T0 events of dgt-28 linked with TraP4, TraP5, TraP8 and TraP23 were generated by Agrobacterium transformation and were allowed to acclimate under controlled growth chamber conditions until 2-4 new, normal looking leaves had emerged from the whorl. Plants were assigned individual identification numbers and sampled for copy number analyses of both dgt-28 and aad-1. Based on copy number analyses, plants were selected for protein expression analyses. […]

[1] = Replicate 1, 420 g ai/ha, 10 plants at pre-spray scoring
[2] = Replicate 2, 840 g ai/ha, 10 plants at pre-spray scoring
[3] = Replicate 3, 1680 g ai/ha, 11 plants at pre-spray scoring
[4] = Replicate 4, 3360 g ai/ha, 10 plants at pre-spray scoring

`O=C(O)CNCP(=O)(O)O` [glyphosate, N-(phosphonomethyl) glycine] was tested, and the “No. surviving plants at 14 days after spraying” value (“No. surviving plants at 14 days” below) (T1 wheat; [1]) was 0, the “No. surviving plants at 21 days after spraying” value (“No. surviving plants at 21 days” for short) (T1 wheat; [1]) was 0 and the “No. surviving plants at 14 days” value (T1 wheat; [2]) was 3. The “No. surviving plants at 21 days” value (T1 wheat; [2]) was 0, the “No. surviving plants at 14 days” value (T1 wheat; [3]) was 0 and the “No. surviving plants at 21 days” value (T1 wheat; [3]) was 0. For the same compound, the “No. surviving plants at 14 days” value (T1 wheat; [4]) was 1, the “No. surviving plants at 21 days” value (T1 wheat; [4]) was 0 and the “non-transformed plants controlled with glyphosate at concentrations as low as” value (T0 corn plants) was no less than 280 g ae/ha.
